Test results as given in publication PMC9106008, “Design, Synthesis and Biological Evaluation of N-phenylindole Derivatives as Pks13 Inhibitors againstMycobacterium tuberculosis” (Molecules, 2022).
≈ marks a conversion by molar mass, not a printed value. Read-outs that look alike come from different tables or passages of the source.

How the values were obtained:
[1] = system: Mtb H37Rv strain; test: microplate alamar blue assay (MABA), MIC; assay type: cell-based, Mycobacterium tuberculosis; details: lowest concentration leading to at least 90% inhibition of bacterial growth signal, average of three measurements
[2] = liver microsome stability assay; details: for T1/2 / Remaining (T = 60 min): human liver microsomes; for T1/2: 0.1 µM compound, NADPH 1 mM, 37 °C; for Remaining (T = 60 min): 60 min incubation
[3] = target: Pks13-TE (Mycobacterium tuberculosis, UniProt I6X8D2); test: biochemical; assay type: binding; details: Pks13-TE 30 µM, 3% DMSO, average of three measurements; for ΔTm at 150 µM: compound 150 µM (1:5); for ΔTm at 300 µM: compound 300 µM (1:10)
Pks13-TE, sequence (I6X8D2 1451-1733): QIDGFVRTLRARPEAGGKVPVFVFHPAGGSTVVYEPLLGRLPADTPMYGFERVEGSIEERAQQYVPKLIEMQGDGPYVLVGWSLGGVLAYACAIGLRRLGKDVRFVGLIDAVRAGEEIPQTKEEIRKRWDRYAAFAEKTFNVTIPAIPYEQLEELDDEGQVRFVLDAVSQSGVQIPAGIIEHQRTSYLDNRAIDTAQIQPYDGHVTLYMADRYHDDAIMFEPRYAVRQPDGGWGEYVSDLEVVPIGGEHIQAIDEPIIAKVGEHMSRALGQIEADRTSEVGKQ

[4] = human, microsomes, 0.1 µM, pH 7.4; for Remaining (T = 60 min): 1 h
[5] = in vitro; details: human, microsomes, pH 7.4
[6] = system: Mtb H37Rv strain; details: MABA, cited from earlier work
[7] = Mycobacterium tuberculosis, H37RV, read-out: MIC

Question: For `CC(=O)c1c(C)n(-c2ccc(N(C)C)cc2)c2ccc(O)c(CN3CCC(C)CC3)c12` [Compound 53, 1-(1-(4-(dimethylamino)phenyl)-5-hydroxy-2-methyl-4-((4-methylpiperidin-1-yl)methyl)-1H-indol-3-yl)ethan-1-one], which MIC [1, 7] is on record?
Answer: 1 µg/mL (≈ 2.38 µM)

Question: For `CCNC(=O)c1c(-c2ccc(O)cc2)n(-c2ccccc2)c2ccc(O)c(CN3CCCCC3)c12` [Compound 25, N-ethyl-5-hydroxy-2-(4-hydroxyphenyl)-1-phenyl-4-(piperidin-1-ylmethyl)-1H-indole-3-carboxamide], which MIC [1, 7] is on record?
Answer: 8 µg/mL (≈ 17 µM)

Question: With `CNC(=O)c1c(C)n(-c2ccccc2)c2ccc(O)c(CN3CCCCC3)c12` [Compound 29, 5-hydroxy-N,2-dimethyl-1-phenyl-4-(piperidin-1-ylmethyl)-1H-indole-3-carboxamide] as the compound, how does the MIC [1, 7] read?
Answer: > 64 µg/mL

Question: What about the MIC [1] of the same compound?
Answer: >64 µg/mL

Question: Which MIC [1, 7] does the source give for `CC(=O)c1c(C)n(-c2ccc(C(C)C)cc2)c2ccc(O)c(CN3CCCCC3)c12` [Compound 54, 1-(5-hydroxy-1-(4-isopropylphenyl)-2-methyl-4-(piperidin-1-ylmethyl)-1H-indol-3-yl)ethan-1-one] here?
Answer: 0.125 µg/mL (≈ 0.309 µM)

Question: For `O=C(O)Cc1ccccc1Nc1c(Cl)cccc1Cl` [Diclofenac], which “Remaining (T = 60 min)” value [2] is on record?
Answer: 0.1%

Question: What about the “CLint(liver)” value ([2]; human, scaled from CLint(mic) with 45 mg microsomal protein/g liver, 20 g liver/kg) of the same compound?
Answer: 223.1 mL/min/kg

Question: Which MIC [1, 7] does the source give for `CC(=O)c1c(C)n(-c2ccc(N3CCCCC3)cc2)c2ccc(O)c(CN3CCCCC3)c12` [Compound 48, 1-(5-hydroxy-2-methyl-1-(4-(piperidin-1-yl)phenyl)-4-(piperidin-1-ylmethyl)-1H-indol-3-yl) ethan-1-one] here?
Answer: 0.125 µg/mL (≈ 0.281 µM)

Question: And the ΔTm at 150 µM [3]?
Answer: 14.6 ± 0.04 °C

Question: And the ΔTm at 300 µM [3]?
Answer: 14 ± 0.01 °C

Question: And the “Remaining (T = 60 min)” value [4]?
Answer: 11.3%

Question: And the CLint scaled at 0.1 µM [5]?
Answer: 60.2 mL/min/kg

Question: And the microsomal CLint at 0.1 µM [5]?
Answer: 66.9 µL/min/mg

Question: What about the half-life at 0.1 µM ([2]; human, liver microsomes, pH 7.4) of the same compound?
Answer: 20.7 min

Question: Which MIC [1, 7] does the source give for `CCOC(=O)c1c(C)n(-c2ccc(F)cc2)c2ccc(O)c(CN3CCCCC3)c12` [Compound 37, Ethyl 1-(4-fluorophenyl)-5-hydroxy-2-methyl-4-(piperidin-1-ylmethyl)-1H-indole-3-carboxylate] here?
Answer: 0.5 to 8 µg/mL (≈ 1.22 to 19.5 µM)

Question: And the MIC [1]?
Answer: 1 µg/mL (≈ 2.44 µM)

Question: For `CCOC(=O)c1c(-c2ccc(O)cc2)n(-c2ccccc2)c2ccc(O)c(CN3CCCCC3)c12` [Compound 18, Ethyl 5-hydroxy-2-(4-hydroxyphenyl)-1-phenyl-4-(piperidin-1-ylmethyl)-1H-indole-3-carboxylate], which MIC [1, 7] is on record?
Answer: 2 to 32 µg/mL (≈ 4.25 to 68 µM)

Question: And the MIC [1]?
Answer: 2 µg/mL (≈ 4.25 µM)

Question: With `CCOC(=O)c1c(-c2ccc(OC)cc2)n(-c2ccccc2)c2ccc(O)c(CN3CCCCC3)c12` [Compound 17, Ethyl 5-hydroxy-2-(4-methoxyphenyl)-1-phenyl-4-(piperidin-1-ylmethyl)-1H-indole-3-carboxylate] as the compound, how does the MIC [1, 7] read?
Answer: 4 µg/mL (≈ 8.25 µM)

Question: For `COc1ccc(-c2c(C(C)=O)c3c(CN4CCCCC4)c(O)ccc3n2-c2ccccc2)cc1` [Compound 19, 1-(5-hydroxy-2-(4-methoxyphenyl)-1-phenyl-4-(piperidin-1-ylmethyl)-1H-indol-3-yl) ethan-1-one], which MIC [1, 7] is on record?
Answer: 4 µg/mL (≈ 8.8 µM)

Question: With `CCOC(=O)c1c(C)n(-c2ccc(OC)cc2)c2ccc(O)c(CN3CCCCC3)c12` [Compound 34, Ethyl 5-hydroxy-1-(4-methoxyphenyl)-2-methyl-4-(piperidin-1-ylmethyl)-1H-indole-3-carboxylate] as the compound, how does the MIC [1, 7] read?
Answer: 0.5 to 8 µg/mL (≈ 1.18 to 18.9 µM)

Question: What about the MIC [1] of the same compound?
Answer: 1 µg/mL (≈ 2.37 µM)

Question: For `CC(=O)c1c(C)n(-c2ccc(Br)cc2)c2ccc(O)c(CN3CCCCC3)c12` [Compound 58, 1-(1-(4-bromophenyl)-5-hydroxy-2-methyl-4-(piperidin-1-ylmethyl)-1H-indol-3-yl)ethan-1-one], which MIC [1, 7] is on record?
Answer: 0.125 µg/mL (≈ 0.283 µM)

Question: And the ΔTm at 150 µM [3]?
Answer: 9.5 ± 0.04 °C

Question: And the ΔTm at 300 µM [3]?
Answer: 7.6 ± 0.01 °C

Question: And the “CLint(liver)” value [4]?
Answer: 21.5 mL/min/kg

Question: And the “CLint(mic)” value [4]?
Answer: 23.9 µL/min/mg

Question: And the “Remaining (T = 60 min)” value [4]?
Answer: 47.3%

Question: And the T1/2 [2]?
Answer: 58.0 min

Question: For `CC(=O)c1c(-c2ccc(O)cc2)n(-c2ccccc2)c2ccc(O)c(CN3CCCCC3)c12` [Compound 20, 1-(5-hydroxy-2-(4-hydroxyphenyl)-1-phenyl-4-(piperidin-1-ylmethyl)-1H-indol-3-yl) ethan-1-one], which MIC [1, 7] is on record?
Answer: 16 µg/mL (≈ 36.3 µM)

Question: Which MIC [1, 7] does the source give for `CC(=O)c1c(C)n(-c2ccc(N(C)C)cc2)c2ccc(O)c(CN(C)C)c12` [Compound 51, 1-(4-((dimethylamino)methyl)-1-(4-(dimethylamino)phenyl)-5-hydroxy-2-methyl-1H-indol-3-yl)ethan-1-one] here?
Answer: 2 µg/mL (≈ 5.47 µM)

Question: Which results are given for `CCOC(=O)c1c(C)n(-c2ccccc2)c2ccc(O)c(CN3CCCCC3)c12` [Compound 28, Ethyl 5-hydroxy-2-methyl-1-phenyl-4-(piperidin-1-ylmethyl)-1H-indole-3-carboxylate]?
Answer: MIC [1, 7]: 8 µg/mL (≈ 20.4 µM); ΔTm at 150 µM [3]: 8.6 ± 0.01 °C; ΔTm at 300 µM [3]: 7.8 ± 0.04 °C

Question: For `CC(=O)c1c(C)n(-c2ccc(C(C)(C)C)cc2)c2ccc(O)c(CN3CCCC3)c12` [Compound 56, 1-(1-(4-(tert-butyl)phenyl)-5-hydroxy-2-methyl-4-(pyrrolidin-1-ylmethyl)-1H-indol-3-yl)ethan-1-one], which MIC [1, 7] is on record?
Answer: 0.25 µg/mL (≈ 0.618 µM)

Question: Which MIC [1, 7] does the source give for `CC(=O)c1c(C)n(-c2ccc(N(C)C)cc2)c2ccc(O)c(CN3CCCCC3)c12` [Compound 50, 1-(1-(4-(dimethylamino)phenyl)-5-hydroxy-2-methyl-4-(piperidin-1-ylmethyl)-1H-indol-3-yl)ethan-1-one] here?
Answer: 0.5 µg/mL (≈ 1.23 µM)

Question: What does the source list for `CC(=O)c1c(C)n(-c2ccc(-c3ccccc3)cc2)c2ccc(O)c(CN3CCCCC3)c12` [Compound 45, 1-(1-([1,1′-biphenyl]-4-yl)-5-hydroxy-2-methyl-4-(piperidin-1-ylmethyl)-1H-indol-3-yl)ethan-1-one]?
Answer: MIC [1, 7]: 0.0625 µg/mL (≈ 0.143 µM); ΔTm at 150 µM [3]: 14 ± 0.04 °C; ΔTm at 300 µM [3]: 13.2 ± 0.65 °C

Question: Which MIC [1, 7] does the source give for `CC(=O)c1c(C)n(-c2ccc(N(C)C)cc2)c2ccc(O)c(CN3CCCC3)c12` [Compound 52, 1-(1-(4-(dimethylamino)phenyl)-5-hydroxy-2-methyl-4-(pyrrolidin-1-ylmethyl)-1H-indol-3-yl)ethan-1-one] here?
Answer: 0.5 µg/mL (≈ 1.28 µM)

Question: And the ΔTm at 150 µM [3]?
Answer: 11.4 ± 0.02 °C

Question: What about the ΔTm at 300 µM [3] of the same compound?
Answer: 10.3 ± 0.04 °C

Question: For “Ethyl 1-(4-(tert-butyl)phenyl)-5-hydroxy-2-methyl-4-(piperidin-1-ylmethyl)-1H-indole-3-carboxylate [Compound 57]”, which MIC [1] is on record?
Answer: 0.5 µg/mL

Question: For `CNC(=O)c1c(C)n(-c2ccc(OC)cc2)c2ccc(O)c(CN3CCCCC3)c12` [Compound 30, 5-hydroxy-1-(4-methoxyphenyl)-N,2-dimethyl-4-(piperidin-1-ylmethyl)-1H-indole-3-carboxamide], which MIC [1, 7] is on record?
Answer: 16 µg/mL (≈ 39.3 µM)

Question: Which results are given for `CCOC(=O)c1c(C)n(-c2ccc(C)cc2)c2ccc(O)c(CN3CCCCC3)c12` [Compound 31, Ethyl 5-hydroxy-2-methyl-4-(piperidin-1-ylmethyl)-1-(p-tolyl)-1H-indole-3-carboxylate]?
Answer: MIC [1, 7]: 0.5 to 8 µg/mL (≈ 1.23 to 19.7 µM); MIC [1]: 1 µg/mL (≈ 2.46 µM)

Question: For `CCOC(=O)c1c(-c2ccc(O)cc2)[nH]c2ccc(O)c(CN3CCCCC3)c12` [Compound 14, Ethyl 5-hydroxy-2-(4-hydroxyphenyl)-4-(piperidin-1-ylmethyl)-1H-indole-3-carboxylate], which ΔTm at 150 µM [3] is on record?
Answer: 5.5 ± 0.04 °C

Question: What about the ΔTm at 300 µM [3] of the same compound?
Answer: 4.9 ± 0.02 °C

Question: With `CCNC(=O)c1c(-c2ccc(OC)cc2)n(-c2ccccc2)c2ccc(O)c(CN3CCCCC3)c12` [Compound 23, N-ethyl-5-hydroxy-2-(4-methoxyphenyl)-1-phenyl-4-(piperidin-1-ylmethyl)-1H-indole-3-carboxamide] as the compound, how does the MIC [1, 7] read?
Answer: 16 µg/mL (≈ 33.1 µM)

Question: For `CNC(=O)c1c(-c2ccc(O)cc2)n(-c2ccccc2)c2ccc(O)c(CN3CCCCC3)c12` [Compound 24, 5-hydroxy-2-(4-hydroxyphenyl)-N-methyl-1-phenyl-4-(piperidin-1-ylmethyl)-1H-indole-3-carboxamide], which MIC [1, 7] is on record?
Answer: 4 µg/mL (≈ 8.78 µM)

Question: With `CC(=O)c1c(C)n(-c2ccc(C(C)(C)C)cc2)c2ccc(O)c(CN3CCCCC3)c12` [Compound 55, 1-(1-(4-(tert-butyl)phenyl)-5-hydroxy-2-methyl-4-(piperidin-1-ylmethyl)-1H-indol-3-yl)ethan-1-one] as the compound, how does the MIC [1, 7] read?
Answer: 0.125 µg/mL (≈ 0.299 µM)

Question: For `CCOC(=O)c1c(-c2ccc(OC)cc2)[nH]c2ccc(O)c(CN3CCCCC3)c12` [Compound 13, Ethyl 5-hydroxy-2-(4-methoxyphenyl)-4-(piperidin-1-ylmethyl)-1H-indole-3-carboxylate], which MIC [1, 7] is on record?
Answer: 32 µg/mL (≈ 78.3 µM)

Question: For `CNC(=O)c1c(-c2ccc(OC)cc2)n(-c2ccccc2)c2ccc(O)c(CN3CCCCC3)c12` [Compound 22, 5-hydroxy-2-(4-methoxyphenyl)-N-methyl-1-phenyl-4-(piperidin-1-ylmethyl)-1H-indole-3-carboxamide], which MIC [1, 7] is on record?
Answer: 16 µg/mL (≈ 34.1 µM)

Question: For `CCOC(=O)c1c(C)n(-c2ccc(N(C)C)cc2)c2ccc(O)c(CN3CCCCC3)c12` [Compound 49, Ethyl 1-(4-(dimethylamino)phenyl)-5-hydroxy-2-methyl-4-(piperidin-1-ylmethyl)-1H-indole-3-carboxylate], which MIC [1, 7] is on record?
Answer: 0.5 to 8 µg/mL (≈ 1.15 to 18.4 µM)

Question: And the MIC [1]?
Answer: 1 µg/mL (≈ 2.3 µM)

Question: Which ΔTm at 150 µM [3] does the source give for `O=c1oc2cc(O)ccc2c2oc3ccc(O)c(CN4CCCCC4)c3c12` [Compound 7, reference compound] here?
Answer: 11.4 ± 0.03 °C

Question: What about the ΔTm at 300 µM [3] of the same compound?
Answer: 10.5 ± 0.01 °C

Question: And the MIC ([6]; reference compounds for comparison)?
Answer: 0.0039 µg/mL (≈ 0.0107 µM)

Question: Which MIC ([6]; reference compound for comparison) does the source give for `CCOC(=O)c1c(-c2ccccc2)[nH]c2ccc(O)c(CN3CCCCC3)c12` [Compound 9] here?
Answer: 32 µg/mL (≈ 84.6 µM)
